In ChEMBL document CHEMBL1649403, “CYP1A2-mediated biotransformation of cardioactive 2-thienylidene-3,4-methylenedioxybenzoylhydrazine (LASSBio-294) by rat liver microsomes and human recombinant CYP enzymes” (Eur J Med Chem, 2011):
Each block holds one molecule with its values, some of them ahead of it.

Key:
Cytochrome P450 1A2 = target: T1, Cytochrome P450 1A2 (Homo sapiens, UniProt P05177); assay: Activity of human recombinant CYP1A2 assessed as compound remaining; format: ADME; details: recombinant enzyme
T1 sequence (P05177 whole entry): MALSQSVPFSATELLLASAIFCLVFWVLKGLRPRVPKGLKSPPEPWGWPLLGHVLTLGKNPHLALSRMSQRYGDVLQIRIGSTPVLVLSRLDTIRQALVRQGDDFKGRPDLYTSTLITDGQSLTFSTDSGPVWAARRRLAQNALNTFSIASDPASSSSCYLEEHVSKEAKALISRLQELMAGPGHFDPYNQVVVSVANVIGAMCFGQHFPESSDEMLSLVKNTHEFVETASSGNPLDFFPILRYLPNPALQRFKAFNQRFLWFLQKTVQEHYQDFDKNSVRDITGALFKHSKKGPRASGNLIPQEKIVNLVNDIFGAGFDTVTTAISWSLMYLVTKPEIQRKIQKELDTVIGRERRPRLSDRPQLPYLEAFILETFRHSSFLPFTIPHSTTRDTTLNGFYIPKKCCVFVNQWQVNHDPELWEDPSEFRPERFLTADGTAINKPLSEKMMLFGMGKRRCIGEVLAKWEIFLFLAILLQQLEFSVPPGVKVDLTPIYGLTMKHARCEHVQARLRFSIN

Cytochrome P450 2C19 = Cytochrome P450 2C19 (Homo sapiens, UniProt P33261); assay: Activity of human recombinant CYP2C19 assessed as compound remaining; format: ADME; details: recombinant enzyme
Cytochrome P450 2C8 = target: T2, Cytochrome P450 2C8 (Homo sapiens, UniProt P10632); assay: Activity of human recombinant CYP2C8 assessed as compound remaining; format: ADME; details: recombinant enzyme
T2 sequence (P10632 whole entry): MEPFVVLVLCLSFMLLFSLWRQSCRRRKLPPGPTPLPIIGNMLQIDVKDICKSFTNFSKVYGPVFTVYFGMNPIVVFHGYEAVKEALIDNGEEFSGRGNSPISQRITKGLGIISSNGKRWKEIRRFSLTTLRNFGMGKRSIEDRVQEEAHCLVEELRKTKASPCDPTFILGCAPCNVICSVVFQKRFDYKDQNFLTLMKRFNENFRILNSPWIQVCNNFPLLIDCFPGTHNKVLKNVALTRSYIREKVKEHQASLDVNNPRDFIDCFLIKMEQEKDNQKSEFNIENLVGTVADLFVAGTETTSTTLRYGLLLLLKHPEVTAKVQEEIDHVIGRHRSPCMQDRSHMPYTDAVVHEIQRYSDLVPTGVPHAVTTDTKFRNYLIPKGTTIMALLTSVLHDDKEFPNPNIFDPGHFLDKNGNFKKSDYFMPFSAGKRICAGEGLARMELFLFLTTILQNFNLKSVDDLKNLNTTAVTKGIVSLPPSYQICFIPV

Cytochrome P450 2B6 = target: T3, Cytochrome P450 2B6 (Homo sapiens, UniProt P20813); assay: Activity of human recombinant CYP2B6 assessed as compound remaining; format: ADME; details: recombinant enzyme
T3 sequence (P20813 whole entry): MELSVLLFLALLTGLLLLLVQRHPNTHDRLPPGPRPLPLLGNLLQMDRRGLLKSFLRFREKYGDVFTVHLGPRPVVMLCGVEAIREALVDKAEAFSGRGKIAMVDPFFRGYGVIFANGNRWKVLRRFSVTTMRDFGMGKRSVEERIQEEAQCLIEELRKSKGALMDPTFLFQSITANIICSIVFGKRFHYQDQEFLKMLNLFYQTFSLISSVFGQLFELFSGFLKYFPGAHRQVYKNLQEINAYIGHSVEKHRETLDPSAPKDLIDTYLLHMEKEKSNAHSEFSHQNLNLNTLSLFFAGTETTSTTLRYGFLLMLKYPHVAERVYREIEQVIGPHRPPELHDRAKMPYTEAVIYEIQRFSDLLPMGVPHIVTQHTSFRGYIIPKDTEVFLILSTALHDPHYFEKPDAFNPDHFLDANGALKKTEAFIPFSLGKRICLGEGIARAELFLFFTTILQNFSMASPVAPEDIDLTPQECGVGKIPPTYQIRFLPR

Cytochrome P450 3A5 = Cytochrome P450 3A5 (Homo sapiens, UniProt P20815); assay: Activity of human recombinant CYP3A5 assessed as compound remaining; format: ADME; details: recombinant enzyme
Cytochrome P450 2D6 = Cytochrome P450 2D6 (Homo sapiens, UniProt P10635); assay: Activity of human recombinant CYP2D6 assessed as compound remaining; format: ADME; details: recombinant enzyme
Cytochrome P450 3A4 = Cytochrome P450 3A4 (Homo sapiens, UniProt P08684); assay: Activity of human recombinant CYP3A4 assessed as compound remaining; format: ADME; details: recombinant enzyme
Cytochrome P450 2C9 = Cytochrome P450 2C9 (Homo sapiens, UniProt P11712); assay: Activity of human recombinant CYP2C9 assessed as compound remaining; format: ADME; details: recombinant enzyme
Liver microsomes [1] = assay: Metabolic stability in rat liver microsomes in presence of CYP1A2 inhibitor furafylline; format: ADME, Microsome
Liver microsomes [2] = assay: Metabolic stability in rat liver microsomes in presence of non-selective cytochrome P450 inhibitor ketoconazole; format: ADME, Microsome
Liver microsomes [3] = assay: Metabolic stability in rat liver microsomes in presence of CYP2D6 inhibitor quinidine; format: ADME, Microsome
Liver microsomes [4] = assay: Metabolic stability in rat liver microsomes in presence of CYP2C9 inhibitor sulfaphenazole; format: ADME, Microsome

Chain of Cytochrome P450 2C19 (P33261 whole entry): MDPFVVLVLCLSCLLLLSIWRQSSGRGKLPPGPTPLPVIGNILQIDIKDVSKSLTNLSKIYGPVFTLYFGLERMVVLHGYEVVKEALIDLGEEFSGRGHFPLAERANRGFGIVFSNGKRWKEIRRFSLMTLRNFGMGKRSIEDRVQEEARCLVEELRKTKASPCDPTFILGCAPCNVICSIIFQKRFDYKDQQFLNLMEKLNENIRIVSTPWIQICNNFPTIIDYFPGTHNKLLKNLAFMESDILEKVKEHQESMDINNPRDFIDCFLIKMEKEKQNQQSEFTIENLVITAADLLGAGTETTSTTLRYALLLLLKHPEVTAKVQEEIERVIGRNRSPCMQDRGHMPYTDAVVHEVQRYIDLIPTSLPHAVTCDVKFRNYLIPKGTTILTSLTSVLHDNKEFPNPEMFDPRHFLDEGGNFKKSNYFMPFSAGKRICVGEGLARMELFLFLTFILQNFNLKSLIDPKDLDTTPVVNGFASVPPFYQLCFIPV
Chain of Cytochrome P450 2C9 (P11712 whole entry): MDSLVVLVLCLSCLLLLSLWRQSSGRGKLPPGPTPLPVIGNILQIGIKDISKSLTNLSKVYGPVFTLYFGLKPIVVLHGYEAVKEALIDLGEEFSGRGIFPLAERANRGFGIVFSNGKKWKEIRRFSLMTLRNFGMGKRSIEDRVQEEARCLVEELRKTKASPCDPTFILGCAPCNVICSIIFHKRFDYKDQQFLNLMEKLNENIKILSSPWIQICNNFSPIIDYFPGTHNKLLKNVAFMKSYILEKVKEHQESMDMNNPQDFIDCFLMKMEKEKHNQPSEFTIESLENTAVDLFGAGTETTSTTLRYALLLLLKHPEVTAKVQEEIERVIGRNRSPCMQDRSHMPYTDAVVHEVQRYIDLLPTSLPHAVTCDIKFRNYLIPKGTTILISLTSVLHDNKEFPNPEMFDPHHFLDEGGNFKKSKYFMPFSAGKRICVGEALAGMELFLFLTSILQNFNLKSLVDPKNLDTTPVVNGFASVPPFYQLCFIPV
Chain of Cytochrome P450 3A4 (P08684 whole entry): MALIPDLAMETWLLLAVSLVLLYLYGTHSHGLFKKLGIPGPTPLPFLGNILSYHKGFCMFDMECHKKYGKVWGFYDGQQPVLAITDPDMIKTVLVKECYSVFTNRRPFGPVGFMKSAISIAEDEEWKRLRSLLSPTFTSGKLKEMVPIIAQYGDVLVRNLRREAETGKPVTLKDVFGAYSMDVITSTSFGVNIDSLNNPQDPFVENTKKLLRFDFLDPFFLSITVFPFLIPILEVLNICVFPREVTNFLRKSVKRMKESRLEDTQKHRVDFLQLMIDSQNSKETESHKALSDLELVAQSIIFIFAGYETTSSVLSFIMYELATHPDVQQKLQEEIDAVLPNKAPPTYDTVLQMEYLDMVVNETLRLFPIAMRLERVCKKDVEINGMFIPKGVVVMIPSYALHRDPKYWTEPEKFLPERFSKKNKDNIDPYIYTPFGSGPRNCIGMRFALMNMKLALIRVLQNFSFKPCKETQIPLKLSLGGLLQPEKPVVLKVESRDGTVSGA
Chain of Cytochrome P450 2D6 (P10635 whole entry): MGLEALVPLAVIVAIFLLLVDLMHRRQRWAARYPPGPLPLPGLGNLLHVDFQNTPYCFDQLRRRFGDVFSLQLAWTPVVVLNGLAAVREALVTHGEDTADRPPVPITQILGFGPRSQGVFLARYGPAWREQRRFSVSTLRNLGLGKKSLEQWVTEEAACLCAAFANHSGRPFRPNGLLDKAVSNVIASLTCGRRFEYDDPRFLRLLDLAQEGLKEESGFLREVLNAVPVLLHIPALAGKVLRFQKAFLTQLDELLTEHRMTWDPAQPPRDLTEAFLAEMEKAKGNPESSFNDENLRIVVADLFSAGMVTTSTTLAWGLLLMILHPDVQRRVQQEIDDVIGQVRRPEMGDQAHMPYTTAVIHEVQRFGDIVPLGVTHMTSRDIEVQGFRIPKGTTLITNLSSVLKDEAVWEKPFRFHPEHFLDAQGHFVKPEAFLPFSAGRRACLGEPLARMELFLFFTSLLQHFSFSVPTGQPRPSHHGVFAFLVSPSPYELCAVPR
Chain of Cytochrome P450 3A5 (P20815 whole entry): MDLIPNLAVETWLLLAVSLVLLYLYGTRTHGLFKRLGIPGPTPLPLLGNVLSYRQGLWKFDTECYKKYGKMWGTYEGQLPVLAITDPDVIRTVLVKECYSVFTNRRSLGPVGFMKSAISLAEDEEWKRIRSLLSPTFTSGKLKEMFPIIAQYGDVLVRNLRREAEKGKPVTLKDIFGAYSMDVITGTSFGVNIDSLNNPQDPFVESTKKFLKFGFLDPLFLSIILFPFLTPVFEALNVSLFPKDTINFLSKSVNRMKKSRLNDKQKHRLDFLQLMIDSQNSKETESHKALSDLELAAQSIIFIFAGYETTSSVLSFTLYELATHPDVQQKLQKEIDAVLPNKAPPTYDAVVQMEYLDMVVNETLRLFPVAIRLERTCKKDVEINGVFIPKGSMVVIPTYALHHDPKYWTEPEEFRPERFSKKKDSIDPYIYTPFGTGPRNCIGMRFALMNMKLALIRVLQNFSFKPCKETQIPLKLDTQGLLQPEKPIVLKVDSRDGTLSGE

Activity (Cytochrome P450 1A2): 67%
Activity (Cytochrome P450 2C19): 96%
Activity (Cytochrome P450 2C8): 99%
Activity (Cytochrome P450 2B6): 98%
Activity (Cytochrome P450 3A5): 100%
Activity (Cytochrome P450 2D6): 95%
Activity (Cytochrome P450 3A4): 92%
Activity (Cytochrome P450 2C9): 81%
SMILES: O=C(N/N=C/c1cccs1)c1ccc2c(c1)OCO2

Stability (Liver microsomes [1]): 0.12 µM
SMILES: Cc1nc2c([nH]1)c(=O)n(C)c(=O)n2Cc1ccco1 [FURAFYLLINE]

SMILES: CC(=O)N1CCN(c2ccc(OCC3COC(Cn4ccnc4)(c4ccc(Cl)cc4Cl)O3)cc2)CC1 (configuration not stated) [KETOCONAZOLE]
Stability (Liver microsomes [2]): 0.31 µM

Stability (Liver microsomes [3]): 0.91 µM
SMILES: C=C[C@H]1C[N@@]2CC[C@H]1C[C@@H]2[C@@H](O)c1ccnc2ccc(OC)cc12 [QUINIDINE]

Stability (Liver microsomes [4]): 0.85 µM
SMILES: Nc1ccc(S(=O)(=O)Nc2ccnn2-c2ccccc2)cc1 [SULFAPHENAZOLE]
